What was measured:
Format in all cases: functional
[1] = tested on: ACHN; test: Anticancer activity against human ACHN cells assessed cell growth at 10 uM after 48 hrs by sulforhodamine B assay relative to control
[2] = tested on: CAKI-1; test: Anticancer activity against human Caki1 cells assessed cell growth at 10 uM after 48 hrs by sulforhodamine B assay relative to control
[3] = tested on: SN12C; test: Anticancer activity against human SN12C cells assessed cell growth at 10 uM after 48 hrs by sulforhodamine B assay relative to control
[4] = tested on: DU-145; test: Anticancer activity against human DU145 cells assessed cell growth at 10 uM after 48 hrs by sulforhodamine B assay relative to control
[5] = tested on: NCI/ADR-RES; test: Anticancer activity against human NCI/ADR-RES cells assessed cell growth at 10 uM after 48 hrs by sulforhodamine B assay relative to control
[6] = tested on: MDA-MB-231; test: Anticancer activity against human MDA-MB-231 cells assessed cell growth at 10 uM after 48 hrs by sulforhodamine B assay relative to control
[7] = tested on: MDA-MB-435; test: Anticancer activity against human MDA-MB-435 cells assessed cell growth at 10 uM after 48 hrs by sulforhodamine B assay relative to control
[8] = tested on: BT-549; test: Anticancer activity against human BT549 cells assessed cell growth at 10 uM after 48 hrs by sulforhodamine B assay relative to control
[9] = tested on: T47D; test: Anticancer activity against human T47D cells assessed cell growth at 10 uM after 48 hrs by sulforhodamine B assay relative to control
[10] = tested on: K562; test: Anticancer activity against human K562 cells assessed cell growth at 10 uM after 48 hrs by sulforhodamine B assay relative to control
[11] = tested on: MOLT-4; test: Anticancer activity against human MOLT4 cells assessed cell growth at 10 uM after 48 hrs by sulforhodamine B assay relative to control
[12] = Anticancer activity against human RPMI8266 cells assessed cell growth at 10 uM after 48 hrs by sulforhodamine B assay relative to control
[13] = tested on: SR; test: Anticancer activity against human SR cells assessed cell growth at 10 uM after 48 hrs by sulforhodamine B assay relative to control
[14] = tested on: HOP-92; test: Anticancer activity against human HOP92 cells assessed cell growth at 10 uM after 48 hrs by sulforhodamine B assay relative to control
[15] = tested on: NCI-H226; test: Anticancer activity against human NCI-H226 cells assessed cell growth at 10 uM after 48 hrs by sulforhodamine B assay relative to control
[16] = tested on: NCI-H23; test: Anticancer activity against human NCI-H23 cells assessed cell growth at 10 uM after 48 hrs by sulforhodamine B assay relative to control
[17] = tested on: NCI-H522; test: Anticancer activity against human NCI-H522 cells assessed cell growth at 10 uM after 48 hrs by sulforhodamine B assay relative to control
[18] = tested on: COLO 205; test: Anticancer activity against human COLO205 cells assessed cell growth at 10 uM after 48 hrs by sulforhodamine B assay relative to control
[19] = tested on: HCC 2998; test: Anticancer activity against human HCC2998 cells assessed cell growth at 10 uM after 48 hrs by sulforhodamine B assay relative to control
[20] = tested on: HCT-116; test: Anticancer activity against human HCT116 cells assessed cell growth at 10 uM after 48 hrs by sulforhodamine B assay relative to control
[21] = tested on: HCT-15; test: Anticancer activity against human HCT15 cells assessed cell growth at 10 uM after 48 hrs by sulforhodamine B assay relative to control
[22] = tested on: HT-29; test: Anticancer activity against human HT-29 cells assessed cell growth at 10 uM after 48 hrs by sulforhodamine B assay relative to control
[23] = tested on: KM12; test: Anticancer activity against human KM12 cells assessed cell growth at 10 uM after 48 hrs by sulforhodamine B assay relative to control
[24] = tested on: SW-620; test: Anticancer activity against human SW620 cells assessed cell growth at 10 uM after 48 hrs by sulforhodamine B assay relative to control
[25] = tested on: SF-268; test: Anticancer activity against human SF268 cells assessed cell growth at 10 uM after 48 hrs by sulforhodamine B assay relative to control
[26] = tested on: SF-295; test: Anticancer activity against human SF295 cells assessed cell growth at 10 uM after 48 hrs by sulforhodamine B assay relative to control
[27] = tested on: SF-539; test: Anticancer activity against human SF539 cells assessed cell growth at 10 uM after 48 hrs by sulforhodamine B assay relative to control
[28] = tested on: SNB-75; test: Anticancer activity against human SNB75 cells assessed cell growth at 10 uM after 48 hrs by sulforhodamine B assay relative to control
[29] = tested on: U-251; test: Anticancer activity against human U251 cells assessed cell growth at 10 uM after 48 hrs by sulforhodamine B assay relative to control
[30] = tested on: Malme-3M; test: Anticancer activity against human MALME-3M cells assessed cell growth at 10 uM after 48 hrs by sulforhodamine B assay relative to control
[31] = tested on: M14; test: Anticancer activity against human M14 cells assessed cell growth at 10 uM after 48 hrs by sulforhodamine B assay relative to control
[32] = tested on: SK-MEL-2; test: Anticancer activity against human SK-MEL-2 cells assessed cell growth at 10 uM after 48 hrs by sulforhodamine B assay relative to control
[33] = tested on: SK-MEL-28; test: Anticancer activity against human SK-MEL-28 cells assessed cell growth at 10 uM after 48 hrs by sulforhodamine B assay relative to control
[34] = tested on: SK-MEL-5; test: Anticancer activity against human SK-MEL-5 cells assessed cell growth at 10 uM after 48 hrs by sulforhodamine B assay relative to control
[35] = tested on: UACC-257; test: Anticancer activity against human UACC257 cells assessed cell growth at 10 uM after 48 hrs by sulforhodamine B assay relative to control
[36] = tested on: UACC-62; test: Anticancer activity against human UACC62 cells assessed cell growth at 10 uM after 48 hrs by sulforhodamine B assay relative to control
[37] = tested on: OVCAR-3; test: Anticancer activity against human OVCAR-3 cells assessed cell growth at 10 uM after 48 hrs by sulforhodamine B assay relative to control
[38] = tested on: OVCAR-4; test: Anticancer activity against human OVCAR4 cells assessed cell growth at 10 uM after 48 hrs by sulforhodamine B assay relative to control
[39] = tested on: OVCAR-5; test: Anticancer activity against human OVCAR5 cells assessed cell growth at 10 uM after 48 hrs by sulforhodamine B assay relative to control
[40] = tested on: SK-OV-3; test: Anticancer activity against human SKOV3 cells assessed cell growth at 10 uM after 48 hrs by sulforhodamine B assay relative to control
[41] = tested on: A498; test: Anticancer activity against human A498 cells assessed cell growth at 10 uM after 48 hrs by sulforhodamine B assay relative to control
[42] = tested on: HL-60(TB); test: Anticancer activity against human HL-60(TB) cells assessed cell growth at 10 uM after 48 hrs by sulforhodamine B assay relative to control
[43] = tested on: CCRF-CEM; test: Anticancer activity against human CCRF-CEM cells assessed cell growth at 10 uM after 48 hrs by sulforhodamine B assay relative to control

CCCCCCCCCCCCCCCCCC[n+]1ccn(C)c1.[Cl-]
Activity [1]: -12.35%
Activity [2]: -67.34%
Activity [3]: -52.54%
Activity [4]: -7.74%
Activity [5]: 20.86%
Activity [6]: -66.25%
Activity [7]: -56.4%
Activity [8]: -55.64%
Activity [9]: 35.89%
Activity [10]: 28.31%
Activity [11]: 16.78%
Activity [12]: 93.78%
Activity [13]: 4.33%
Activity [14]: -51.3%
Activity [15]: -54.04%
Activity [16]: -48.94%
Activity [17]: -74.88%
Activity [18]: 1.82%
Activity [19]: -80.71%
Activity [20]: -18.25%
Activity [21]: 3.3%
Activity [22]: -42.14%
Activity [23]: -47.8%
Activity [24]: -45.24%
Activity [25]: -45.4%
Activity [26]: -10.43%
Activity [27]: -85.24%
Activity [28]: -74.36%
Activity [29]: -0.67%
Activity [30]: -62.43%
Activity [31]: -33.7%
Activity [32]: -61.28%
Activity [33]: -49.38%
Activity [34]: -81.11%
Activity [35]: -38%
Activity [36]: -70.86%
Activity [37]: -48.71%
Activity [38]: -19.32%
Activity [39]: -61.54%
Activity [40]: 4.83%
Activity [41]: -50.94%
Activity [42]: 3.76%
Activity [43]: 34.04%

CCCCCCCCCCCCCCCCCC[n+]1ccn(C)c1.F[P-](F)(F)(F)(F)F
Activity [1]: 5.45%
Activity [2]: -80.74%
Activity [3]: -24.52%
Activity [4]: -12.17%
Activity [5]: 22.73%
Activity [6]: -32.88%
Activity [7]: -71.22%
Activity [8]: -23.5%
Activity [9]: 13.4%
Activity [10]: 14.23%
Activity [11]: 2.98%
Activity [12]: 19.57%
Activity [13]: 13.95%
Activity [14]: -47.8%
Activity [15]: -34.72%
Activity [16]: -49.37%
Activity [17]: -53.86%
Activity [18]: -27.43%
Activity [19]: -83.5%
Activity [20]: -27.74%
Activity [21]: 9.24%
Activity [22]: -50.31%
Activity [23]: -60.81%
Activity [24]: -48.51%
Activity [25]: -48.33%
Activity [26]: -28.21%
Activity [27]: -80.04%
Activity [28]: -68.15%
Activity [29]: -22.42%
Activity [30]: -46.96%
Activity [31]: -28.52%
Activity [32]: -42.48%
Activity [33]: -57.59%
Activity [34]: -85.04%
Activity [35]: -62.12%
Activity [36]: -65.74%
Activity [37]: -57.4%
Activity [38]: -10.51%
Activity [39]: -60.74%
Activity [40]: -6.01%
Activity [41]: -51.56%
Activity [42]: 2.58%
Activity [43]: 13.72%

CCCCCCCCCCCCCCCCCC[n+]1ccn(C)c1.O=S(=O)([N-]S(=O)(=O)C(F)(F)F)C(F)(F)F
Activity [1]: -43.53%
Activity [2]: -78.63%
Activity [3]: -68.39%
Activity [4]: -8.63%
Activity [5]: -7.98%
Activity [6]: -80.16%
Activity [7]: -70.83%
Activity [8]: -54.97%
Activity [9]: 16.98%
Activity [10]: 17.9%
Activity [11]: 9.25%
Activity [12]: 75.58%
Activity [13]: 19%
Activity [14]: -66.2%
Activity [15]: -61.74%
Activity [16]: -44.29%
Activity [17]: -74.3%
Activity [18]: -47.26%
Activity [19]: -80.86%
Activity [20]: -51.46%
Activity [21]: -54.83%
Activity [22]: -36.79%
Activity [23]: -61.9%
Activity [24]: -38.1%
Activity [25]: -45.26%
Activity [26]: -21.51%
Activity [27]: -82.94%
Activity [28]: -55.13%
Activity [29]: -63.9%
Activity [30]: -49.87%
Activity [31]: -30.74%
Activity [32]: -51.69%
Activity [33]: -52.79%
Activity [34]: -74.13%
Activity [35]: -47.9%
Activity [36]: -82.14%
Activity [37]: -56.27%
Activity [38]: -13.29%
Activity [39]: -59.68%
Activity [40]: -9.16%
Activity [41]: -44.9%
Activity [42]: 2.22%
Activity [43]: 67.84%

CCCCCCCCCCCCCCCC[n+]1ccn(C)c1.[Cl-]
Activity [1]: -0.6%
Activity [2]: -83.54%
Activity [3]: -94.61%
Activity [4]: -69.69%
Activity [5]: 37.13%
Activity [6]: -93.87%
Activity [7]: -55.77%
Activity [8]: -65.21%
Activity [9]: -0.13%
Activity [10]: 72.56%
Activity [11]: 17.19%
Activity [12]: 15.77%
Activity [13]: 15.17%
Activity [14]: -80.2%
Activity [15]: -60.54%
Activity [16]: -51.9%
Activity [17]: -87.38%
Activity [18]: -45.99%
Activity [19]: -94.43%
Activity [20]: -87.23%
Activity [21]: 9.85%
Activity [22]: -100%
Activity [23]: -83.88%
Activity [24]: -66.67%
Activity [25]: -22.98%
Activity [26]: -39.48%
Activity [27]: -98.59%
Activity [28]: -98.62%
Activity [29]: -69.96%
Activity [30]: -77.38%
Activity [31]: -73.7%
Activity [32]: -64.47%
Activity [33]: -86.22%
Activity [34]: -95.2%
Activity [35]: -61.13%
Activity [36]: -94.58%
Activity [37]: -24.76%
Activity [38]: -54.83%
Activity [39]: -67.51%
Activity [40]: -33.78%
Activity [41]: -65.31%
Activity [42]: 45.73%
Activity [43]: 33.57%

Reference: ChEMBL document CHEMBL1153245, “A profile of the in vitro anti-tumor activity of imidazolium-based ionic liquids” (2010)
